We go through 77 molecules from the RepoRT retention time repository (doi:10.1021/es4044374).

This series is described as follows: RP, Waters XBridge C18, 50 × 2.1 mm, 3.5 µm, 30 °C, 0.2 mL/min, estimated dead time 0.55 min; A: water + 0.1% formic acid, pH 3; B: methanol + 0.1% formic acid, pH 3; gradient (min/%B) 0/10 4/50 17/95 25/95 25.1/10 30/10. As to conditions: stereoisomer not certain.

In the case of `COC(=O)C(Cc1ccccc1)NC(=O)C(N)CC(=O)O` (configuration not stated) [Aspartame], the LC retention time is 4.8 min. On to `O=C(O)C(F)(F)C(F)(F)C(F)(F)C(F)(F)C(F)(F)C(F)(F)C(F)(F)C(F)(F)C(F)(F)F` [Perfluorodecanoic acid], for which the LC retention time is 15.2 min. For the molecule `CC(=O)Nc1ccc(S(=O)(=O)Nc2nccs2)cc1` [N4-Acetylsulfathiazole], the LC retention time was 4.1 min. For the molecule `CC1COC(=O)c2cc3c(cc21)C(C)(C)C(C)C3(C)C` (configuration not stated) [Galaxolidone], the LC retention time was 14.7 min. As to `Cc1nnc(-c2ccccc2)c(=O)[nH]1` [Metamitron-desamino], the LC retention time was 5.1 min.

On to `CC(C)NCC(O)c1ccc(NS(C)(=O)=O)cc1` (configuration not stated) [Sotalol], for which the LC retention time is 1.6 min. With `CCC1OC(=O)C(C)C(OC2CC(C)(OC)C(O)C(C)O2)C(C)C(OC2OC(C)CC(N(C)C)C2O)C(C)(O)CC(C)C(=O)C(C)C(O)C1(C)O` (configuration not stated) [Erythromycin], the LC retention time is 8.5 min.

For the molecule `CNC(=O)ON=C(C)SC` [Methomyl], the LC retention time was 3.6 min. As to `CC(C)Nc1nc(Cl)nc(NC(C)C)n1` [Propazine], the LC retention time is 9.9 min. On to `NC(=O)c1c(Cl)cccc1Cl` [2,6-Dichlorobenzamide], for which the LC retention time was 4 min. With `CNCC(c1ccc(OC)cc1)C1(O)CCCCC1` (configuration not stated) [N-Desmethylvenlafaxine], the LC retention time was 6.3 min. `NCC1(CC(=O)O)CCCCC1` [Gabapentin]: the LC retention time is 3.6 min. With `COC(=O)C(Cc1ccccc1)NC(=O)C(CC(=O)O)NCCC(C)(C)C` (configuration not stated) [Neotame], the LC retention time was 9 min. In the case of `NC(=O)N1c2ccccc2C(O)C(O)c2ccccc21` (stereo not drawn) [10,11-trans-Dihydroxy-10,11-dihydrocarbamazepine], the LC retention time is 6.1 min. In the case of `CC(Cc1ccc(C(C)(C)C)cc1)CN1CC(C)OC(C)C1` (configuration not stated) [Fenpropimorph], the LC retention time is 9.4 min. As for `CCNc1nc(NCC)nc(OC)n1` [Simeton], the LC retention time was 4.9 min. As to `COc1ccc(C(CN(C)C)C2(O)CCCCC2)cc1` (configuration not stated) [Venlafaxine], the LC retention time is 6.2 min. With `CC1(C)CON(Cc2ccccc2Cl)C1=O` [Clomazone], the LC retention time is 9.4 min. Take `Cc1ncc([N+](=O)[O-])n1CCO` [Metronidazole]: the LC retention time is 2.1 min. The value for `CNCCC(Oc1ccc(C(F)(F)F)cc1)c1ccccc1` (configuration not stated) [Fluoxetine] was 9.2 min; that for `CN(C)C(=O)Nc1ccc(Cl)c(Cl)c1` [Diuron] was 8.9 min. For the molecule `CCC(C)n1c(=O)[nH]c(C)c(Br)c1=O` (configuration not stated) [Bromacil], the LC retention time was 7 min. Under `COc1ccc2c3c1OC1C(O)C=CC4C(C2)N(C)CCC341` (configuration not stated) [Codeine] stands 2.8 min; under `COc1c(Cl)ccc(Cl)c1C(=O)O` [Dicamba], 7 min; under `CSc1nc(NC(C)C)nc(NC(C)C)n1` [Prometryn], 8.5 min. As to `CC(C)c1nc(N(C)S(C)(=O)=O)nc(-c2ccc(F)cc2)c1C=CC(O)CC(O)CC(=O)O` (configuration not stated) [Rosuvastatin], the LC retention time is 9.2 min. On to `N#Cc1nn(-c2c(Cl)cc(C(F)(F)F)cc2Cl)c(N)c1S(=O)(=O)C(F)(F)F` [Fipronil-sulfone], for which the LC retention time is 13.5 min. With `Cc1cc(C)nc(NS(=O)(=O)c2ccc(N)cc2)n1` [Sulfamethazine], the LC retention time is 3.9 min. Under `O=C(O)c1cc(Br)c(O)c(Br)c1` [3,5-Dibromo-4-hydroxybenzoic acid] stands 7.3 min.

As to `O=[N+]([O-])c1cc(C(F)(F)F)c(Cl)c([N+](=O)[O-])c1Nc1ncc(C(F)(F)F)cc1Cl` [Fluazinam], the LC retention time was 15.9 min. The value for `O=S(=O)(O)c1ccc2ccccc2c1` [2-Naphthalenesulfonic acid] was 5.2 min.

With `CCc1cccc(CC)c1N(COC)C(=O)C(=O)O` [Alachlor OXA], the LC retention time was 7.4 min. Take `CC(Oc1ccc(Oc2ccc(C(F)(F)F)cn2)cc1)C(=O)O` (configuration not stated) [Fluazifop]: the LC retention time was 10.9 min. `CC(=NC#N)N(C)Cc1ccc(Cl)nc1` [Acetamiprid]: the LC retention time is 5.3 min. For `CCOC(=O)NCCOc1ccc(Oc2ccccc2)cc1` [Fenoxycarb], the LC retention time is 12.6 min. As to `CC(C)(c1ccc(O)cc1)c1ccc(O)cc1` [Bisphenol A], the LC retention time was 14 min. The value for `COc1cc(OC)nc(NC(=O)NS(=O)(=O)c2ncccc2C(=O)N(C)C)n1` [Nicosulfuron] was 7.1 min; that for `Cc1ccc2n[nH]nc2c1` [5-Methyl-1H-benzotriazole] was 5.8 min; that for `O=C(O)C(F)(F)C(F)(F)C(F)(F)C(F)(F)C(F)(F)C(F)(F)F` [Perfluoroheptanoic acid] was 11.1 min.

Take `COc1cc(OC)nc(NC(=O)NS(=O)(=O)c2cc(NC=O)ccc2C(=O)N(C)C)n1` [Foramsulfuron]: the LC retention time is 7.8 min.

For `Cc1cc(C)nc(Nc2ccccc2)n1` [Pyrimethanil], the LC retention time is 7.6 min. Under `CC(C)(C)Nc1nc(N)nc(Cl)n1` [Terbutylazine-desethyl] stands 7.6 min; under `CC(C)Cc1ccc(C(C)C(=O)O)cc1` (configuration not stated) [Ibuprofen], 13.6 min; under `CC(C)N(Cc1ccccc1)C(=O)C(C)(C)C` [Tebutam], 11.7 min. Under `O=C(O)C(c1ccccc1Cl)N1CCc2sccc2C1` (configuration not stated) [Clopidogrel carboxylic acid] stands 5.7 min; under `CNC(=O)Oc1cc(C)c(SC)c(C)c1` [Methiocarb], 10.4 min; under `COCC(=O)N(c1c(C)cccc1C)C(C)C(=O)OC` (configuration not stated) [Metalaxyl], 8.7 min. Take `CC(=O)Nc1ccc(S(=O)(=O)Nc2nc(C)cc(C)n2)cc1` [N4-Acetylsulfamethazine]: the LC retention time is 4.5 min. Regarding `CCNC(=O)C(C)OC(=O)Nc1ccccc1` (configuration not stated) [Carbetamide], the LC retention time was 6.6 min. Turning to `CC(C)=NOCCOC(=O)C(C)Oc1ccc(Oc2cnc3cc(Cl)ccc3n2)cc1` (configuration not stated) [Propaquizafop], the LC retention time was 15 min.

In the case of `COC=C(C(=O)O)c1ccccc1Oc1cc(Oc2ccccc2C#N)ncn1` [Azoxystrobin (free acid)], the LC retention time is 8.8 min.

As for `CN(CC(O)CO)C(=O)c1c(I)c(NC(=O)C(CO)CO)c(I)c(C(=O)N(C)CC(O)CO)c1I` (configuration not stated) [Iobitridol], the LC retention time is 1.6 min.

On to `Cc1c(N)c(=O)n(-c2ccccc2)n1C` [4-Aminoantipyrine], for which the LC retention time is 2.6 min. Regarding `OCc1cccc(Oc2ccccc2)c1` [3-Phenoxybenzylalcohol], the LC retention time is 9.8 min.

For the molecule `CCCc1nc2c(C)cc(-c3nc4ccccc4n3C)cc2n1Cc1ccc(-c2ccccc2C(=O)O)cc1` [Telmisartan], the LC retention time is 9.2 min. With `CCN(CC)C(=O)c1cccc(C)c1` [DEET], the LC retention time is 8.6 min. `CN(CC(=O)O)S(=O)(=O)C(F)(F)C(F)(F)C(F)(F)C(F)(F)C(F)(F)C(F)(F)C(F)(F)C(F)(F)F` [N-methylperfluorooctane sulfonamidoacetic acid]: the LC retention time was 16.5 min.

In the case of `CCOC(=O)Nc1cccc(OC(=O)Nc2ccccc2)c1` [Desmedipham], the LC retention time was 9.2 min. As for `CCOC1Oc2ccc(OS(C)(=O)=O)cc2C1(C)C` (configuration not stated) [Ethofumesate], the LC retention time is 10 min.

Take `CC(C)c1ccc(NC(=O)N(C)C)cc1` [Isoproturon]: the LC retention time is 8.7 min.

Turning to `O=P(O)(O)OCCC(F)(F)C(F)(F)C(F)(F)C(F)(F)C(F)(F)C(F)(F)C(F)(F)C(F)(F)F` [Perfluorodecyl phosphate], the LC retention time was 14.7 min. On to `CCOCN(C(=O)C(=O)O)c1c(C)cccc1CC` [Acetochlor OXA], for which the LC retention time was 7.5 min. For `COCCN(C(=O)CS(=O)(=O)O)c1c(C)cccc1C` [Dimethachlor ESA], the LC retention time was 5.9 min. The value for `CC(=O)N(CC(O)CO)c1c(I)c(C(=O)NCC(O)CO)c(I)c(C(=O)NCC(O)CO)c1I` (configuration not stated) [Iohexol] was 1.6 min; that for `CNCC(c1ccc(O)cc1)C1(O)CCCCC1` (configuration not stated) [N,O-Didesmethylvenlafaxine] was 4.9 min; that for `COc1ccc(C(CN)C2(O)CCCCC2)cc1` (configuration not stated) [N,N-Didesmethylvenlafaxine] was 6.3 min. As for `Nc1ccn(C2OC(CO)C(O)C2(F)F)c(=O)n1` (configuration not stated) [Gemcitabine], the LC retention time was 1 min. Under `COc1cc(OC)nc(NS(=O)(=O)c2ccc(NC(C)=O)cc2)n1` [N4-Acetylsulfadimethoxine] stands 6.3 min. Turning to `CC(C)c1ccc(NC(N)=O)cc1` [Isoproturon-didemethyl], the LC retention time is 8 min. The value for `O=C(O)C(F)(F)C(F)(F)C(F)(F)C(F)(F)C(F)(F)F` [Perfluorohexanoic acid] was 9.3 min; that for `Nc1c(Cl)c(F)nc(OCC(=O)O)c1Cl` [Fluroxypyr] was 6.9 min.

With `NS(=O)(=O)c1cc2c(cc1Cl)NCNS2(=O)=O` [Hydrochlorothiazide], the LC retention time was 2.2 min. Take `CCc1cccc(C)c1N(C(=O)C(=O)O)C(C)COC` (configuration not stated) [Metolachlor OXA]: the LC retention time is 9.3 min. With `CC(C)Nc1nc(N)[nH]c(=O)n1` [Atrazine-desethyl-2-hydroxy], the LC retention time was 1.4 min.

Regarding `O=C(O)COc1nc(Cl)c(Cl)cc1Cl` [Triclopyr], the LC retention time is 10.3 min. Turning to `O=c1[nH]sc2ccccc12` [Benzisothiazolone (BIT)], the LC retention time is 5.1 min. On to `CCN(CC)CCNC(=O)c1cc(Cl)c(N)cc1OC` [Metoclopramide], for which the LC retention time was 4.3 min.
